Assay results from patent publication US9096560B2, “5-heterocyclylalkyl-3-hydroxy-2-phenylcyclopent-2-enones as herbicides” (Syngenta Limited, priority 2008, dated 2015).

How the values were obtained:
Format in all cases: in vivo
[1] = tested on: Alopecurus myosuroides (ALOMY); assay: Example A pre-emergence herbicidal test, ALOMY; conditions: rate 500 g/ha, evaluated 19 or 20 days after spraying
Method: (§1) Seeds of a variety of test species were sown in standard soil in pots. After cultivation for one day (pre-emergence) or after 10 days cultivation (post-emergence) under controlled conditions in a glasshouse, the plants were sprayed with an aqueous spray solution derived from the formulation of the technical active ingredient in 0.6 ml acetone and 45 ml formulation solution containing 10.6% Emulsogen EL (Registry number 61791-12-6), 42.2% N-methylpyrrolidone, 42.2% dipropylene glycol monomethyl ether (Registry number 34590-94-8) and 0.2% X-77 (Registry number 11097-66-8). The test plants were then grown in a greenhouse under optimum conditions until, 14 or 15 days later for post-emergence and 19 or 20 days for pre-emergence, the test was evaluated (100=total damage to plant; 0=no damage to plant). Alopecurus myosuroides (ALOMY), Avena fatua (AVEFA), Lolium perenne (LOLPE), Setaria faberi (SETFA), Digitaria sanguinalis (DIGSA), Echinochloa crus-galli (ECHCG) Pre-Emergence Activity

[2] = tested on: Avena fatua (AVEFA); assay: Example A pre-emergence herbicidal test, AVEFA; conditions: rate 500 g/ha, evaluated 19 or 20 days after spraying
Method: as §1

[3] = tested on: Lolium perenne (LOLPE); assay: Example A pre-emergence herbicidal test, LOLPE; conditions: rate 500 g/ha, evaluated 19 or 20 days after spraying
Method: as §1

[4] = tested on: Setaria faberi (SETFA); assay: Example A pre-emergence herbicidal test, SETFA; conditions: rate 500 g/ha, evaluated 19 or 20 days after spraying
Method: as §1

[5] = tested on: Digitaria sanguinalis (DIGSA); assay: Example A pre-emergence herbicidal test, DIGSA; conditions: rate 500 g/ha, evaluated 19 or 20 days after spraying
Method: as §1

[6] = tested on: Echinochloa crus-galli (ECHCG); assay: Example A pre-emergence herbicidal test, ECHCG; conditions: rate 500 g/ha, evaluated 19 or 20 days after spraying
Method: as §1

[7] = tested on: Alopecurus myosuroides (ALOMY); assay: Example A post-emergence herbicidal test, ALOMY; conditions: evaluated 14 or 15 days after spraying
Method: as §1, with “Post-Emergence” for “Pre-Emergence”

[8] = tested on: Avena fatua (AVEFA); assay: Example A post-emergence herbicidal test, AVEFA; conditions: evaluated 14 or 15 days after spraying
Method: as §1, with “Post-Emergence” for “Pre-Emergence”

[9] = tested on: Lolium perenne (LOLPE); assay: Example A post-emergence herbicidal test, LOLPE; conditions: evaluated 14 or 15 days after spraying
Method: as §1, with “Post-Emergence” for “Pre-Emergence”

[10] = tested on: Setaria faberi (SETFA); assay: Example A post-emergence herbicidal test, SETFA; conditions: evaluated 14 or 15 days after spraying
Method: as §1, with “Post-Emergence” for “Pre-Emergence”

[11] = tested on: Digitaria sanguinalis (DIGSA); assay: Example A post-emergence herbicidal test, DIGSA; conditions: evaluated 14 or 15 days after spraying
Method: as §1, with “Post-Emergence” for “Pre-Emergence”

[12] = tested on: Echinochloa crus-galli (ECHCG); assay: Example A post-emergence herbicidal test, ECHCG; conditions: evaluated 14 or 15 days after spraying
Method: as §1, with “Post-Emergence” for “Pre-Emergence”

[13] = tested on: Lolium perenne (LOLPE); assay: Example B pre-emergence herbicidal test, LOLPE; conditions: Lolium perenne, 312 h, rate 250 g/ha, evaluated after 13 days, 100=total damage to plant, 0=no damage to plant
Summary of the method: (§2)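 Pre-emergence spray one day after sowing; vehicle acetone/water (50:50), 0.5% Tween 20. Percent damage (0 = no effect, 100 = plant killed) recorded 13 days later.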

[14] = tested on: Alopecurus myosuroides (ALOMY); assay: Example B pre-emergence herbicidal test, ALOMY; conditions: Alopecurus myosuroides, 312 h, rate 250 g/ha, evaluated after 13 days, 100=total damage to plant, 0=no damage to plant
Summary of the method: as §2

[15] = tested on: Echinochloa crus-galli (ECHCG); assay: Example B pre-emergence herbicidal test, ECHCG; conditions: Echinochloa crus-galli, 312 h, rate 250 g/ha, evaluated after 13 days, 100=total damage to plant, 0=no damage to plant
Summary of the method: as §2

[16] = tested on: Avena fatua (AVEFA); assay: Example B pre-emergence herbicidal test, AVEFA; conditions: Avena fatua, 312 h, rate 250 g/ha, evaluated after 13 days, 100=total damage to plant, 0=no damage to plant
Summary of the method: as §2

[17] = tested on: Lolium perenne (LOLPE); assay: Example B post-emergence herbicidal test, LOLPE; conditions: Lolium perenne, 312 h, rate 250 g/ha, evaluated after 13 days, scale 0-100, read-out: Post-emergence activity LOLPE (100=total damage to plant; 0=no damage to plant)
Summary of the method: (§3)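 Foliar application to 8-day-old pot-grown seedlings in a glasshouse (24/16 °C, 14 h photoperiod, 65% humidity). Spray solution was derived from an acetone/water (50:50) formulation with 0.5% Tween 20. Injury was assessed 13 days later on a 0–100 scale.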

[18] = tested on: Alopecurus myosuroides (ALOMY); assay: Example B post-emergence herbicidal test, ALOMY; conditions: Alopecurus myosuroides, 312 h, rate 250 g/ha, evaluated after 13 days, scale 0-100, read-out: Post-emergence activity ALOMY (100=total damage to plant; 0=no damage to plant)
Summary of the method: as §3

[19] = tested on: Echinochloa crus-galli (ECHCG); assay: Example B post-emergence herbicidal test, ECHCG; conditions: Echinochloa crus-galli, 312 h, rate 250 g/ha, evaluated after 13 days, scale 0-100, read-out: Post-emergence activity ECHCG (100=total damage to plant; 0=no damage to plant)
Summary of the method: as §3

[20] = tested on: Avena fatua (AVEFA); assay: Example B post-emergence herbicidal test, AVEFA; conditions: Avena fatua, 312 h, rate 250 g/ha, evaluated after 13 days, scale 0-100, read-out: Post-emergence activity AVEFA (100=total damage to plant; 0=no damage to plant)
Summary of the method: as §3

[21] = tested on: Winter Wheat variety 'Hereward'; assay: Example C crop damage test on Winter Wheat, post-emergence, no safener; conditions: Triticum aestivum, 312 h, rate 250 g/ha, evaluated after 13 days, read-out: Winter Wheat (Hereward) damage (100=total damage to plant; 0=no damage to plant)
Summary of the method: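 Wheat plants grown 8 days in glasshouse (24/16° C. day/night, 14 h light, 65% humidity) were sprayed post-emergence with compound in acetone/water (50:50) containing 0.5% Tween 20, no safener. Damage scored 13 days later, 0 = none to 100 = total.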

[22] = tested on: Winter Wheat variety 'Hereward' seed treated with cloquintocet mexyl; assay: Example C crop damage test on Winter Wheat seed treated with safener cloquintocet mexyl, post-emergence; conditions: rate 250 g/ha, seed treated with cloquintocet mexyl 0.5 grams per kilogram of dry seed, evaluated after 13 days
Summary of the method: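 Hereward winter wheat seed treated with cloquintocet mexyl at 0.5 g/kg seed, sown 8 days before post-emergence spray. The spray was made from a formulation in acetone/water 50:50 with 0.5% Tween 20. Grown in a glasshouse at 24/16 °C with 14 h light and 65% humidity; damage scored 0–100 (100 = total) after 13 days.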

Structure (SMILES)	Pre-Emergence Activity ALOMY (100=total damage to plant; 0=no damage to plant) [1]	Pre-Emergence Activity AVEFA (100=total damage to plant; 0=no damage to plant) [2]	Pre-Emergence Activity LOLPE (100=total damage to plant; 0=no damage to plant) [3]	Pre-Emergence Activity SETFA (100=total damage to plant; 0=no damage to plant) [4]	Pre-Emergence Activity DIGSA (100=total damage to plant; 0=no damage to plant) [5]	Pre-Emergence Activity ECHCG (100=total damage to plant; 0=no damage to plant) [6]	Post-Emergence Activity ALOMY (100=total damage to plant; 0=no damage to plant) ([7]; rate 125 g/ha)	Post-Emergence Activity AVEFA (100=total damage to plant; 0=no damage to plant) ([8]; rate 125 g/ha)	Post-Emergence Activity LOLPE (100=total damage to plant; 0=no damage to plant) ([9]; rate 125 g/ha)	Post-Emergence Activity SETFA (100=total damage to plant; 0=no damage to plant) ([10]; rate 125 g/ha)	Post-Emergence Activity DIGSA (100=total damage to plant; 0=no damage to plant) ([11]; rate 125 g/ha)	Post-Emergence Activity ECHCG (100=total damage to plant; 0=no damage to plant) ([12]; rate 125 g/ha)	other results
CCc1cc(C)cc(CC)c1C1C(=O)CC(CC2CCOCC2)C1=O (stereo not shown) [Compound T1]	100	90	100	70	100	80	100	90	100	70	100	100	–
CCc1ccc(-c2ccc(Cl)cc2)cc1C1C(=O)CC(CC2CCOCC2)C1=O (stereo not shown) [Compound T2]	70	10	90	70	80	70	80	40	20	100	100	100	–
Cc1cc(C)c(C2C(=O)C/C(=C\C3CCOCC3)C2=O)c(C)c1 (stereo not shown) [Compound T8]	–	–	–	–	–	–	–	–	–	–	–	–	Post-Emergence Activity ALOMY (100=total damage to plant; 0=no damage to plant) ([7]; rate 250 g/ha): 100; Post-Emergence Activity AVEFA (100=total damage to plant; 0=no damage to plant) ([8]; rate 250 g/ha): 90; Post-Emergence Activity LOLPE (100=total damage to plant; 0=no damage to plant) ([9]; rate 250 g/ha): 100; Post-Emergence Activity SETFA (100=total damage to plant; 0=no damage to plant) ([10]; rate 250 g/ha): 100; Post-Emergence Activity DIGSA (100=total damage to plant; 0=no damage to plant) ([11]; rate 250 g/ha): 80; Post-Emergence Activity ECHCG (100=total damage to plant; 0=no damage to plant) ([12]; rate 250 g/ha): 100; pest or weed control at 250 g/ha [13]: 100%; pest or weed control at 250 g/ha [14]: 100%; pest or weed control at 250 g/ha [15]: 100%; pest or weed control at 250 g/ha [16]: 100%; pest or weed control at 250 g/ha [17]: 100%; pest or weed control at 250 g/ha [18]: 100%; pest or weed control at 250 g/ha [19]: 100%; pest or weed control at 250 g/ha [20]: 100%; crop damage to winter wheat at 250 g/ha [21]: 90%; Winter Wheat (Hereward) + cloquintocet mexyl damage (100=total damage to plant; 0=no damage to plant) [22]: 80
